How the values were obtained:
[1] = test system: DoHH2 B-cell lymphoma cells; test: DoHH2 B Cell Lymphoma Proliferation Assay; assay type: cell-based; details: Homo sapiens, DOHH-2; 72 hour incubation, flow cytometry with counting beads and eFluor 450
Protocol: In vitro potency of test compounds was determined by incubation with DoHH2 B-cell lymphoma cells and subsequent determination of cell number using flow cytometry.
Flow cytometry is a laser-based, biophysical technology employed in cell counting, cell sorting, and biomarker detection, by suspending cells in a stream of fluid and passing them by an electronic detection apparatus. It allows simultaneous multi-parametric analysis of the physical and chemical characteristics of up to thousands of particles per second. To quantify cell numbers, counting beads are used as an internal standard. Counting beads are a calibrated suspension of microbeads which are added to a known volume of sample so the sample volume per bead is known. This allows the absolute determination of cell number in a sample. Cell proliferation is measured using a dye known as Cell Proliferation Dye (eFluor® 450). eFluor® 450 is an organic dye which can be conjugated to cell-specific markers. […]
The average results for each test compound were expressed as a percent (%) of the average control value reflecting cell viability. The average values across the concentrations tested were then plotted and an IC50 was calculated by fitting the data to a 4-parameter IC50 equation using KaleidaGraph software (Synergy Software, Reading, Pa. USA).

[2] = test system: human primary osteoclasts; test: Human Primary Osteoclastogenesis (TRAP-positive multinucleated cells from CD14+ monocytes); assay type: cell-based; details: compound added on Day 4 of monocyte differentiation; for IC50: Homo sapiens, Osteoclast, 96 h
Protocol: In vitro potency of test compounds was determined by incubating them with human primary monocytes and assessing effects on the formation of mature osteoclasts.
The activity of the compounds in reducing the formation of human primary osteoclasts (osteoclastogenesis) was tested using monocytes derived from human whole blood. Monocytes, which are positive for the cell surface marker CD14, are part of the innate immune system found in the circulation. Peripheral blood monocytes differentiate to form several cell types, including osteoclasts. Human primary osteoclasts were […] macrophage colony-stimulating factor (M-CSF) and RANKL+10% foetal calf serum for approximately 6 days, with the exact duration depending on the individual donor of the cells.
When monocytes are cultured under the conditions described above, they form large, multinucleated cells (osteoclasts), which stain positively for tartrate-resistant acid phosphatase (TRAP). TRAP staining was performed between Days 5-6 of culture depending on the individual donor. Osteoclasts are identified as cells which stain positive for TRAP and contain more than 3 nuclei. Compounds which reduce the number of TRAP-positive cells reduce the formation of osteoclasts. The bisphosphonate compound, alendronate, which is used in the treatment of osteoporosis, is used as a positive control for reducing osteoclastogenesis in this assay.
Effects on osteoclast formation were assessed by staining for TRAP and counting cells containing more than three nuclei in each well under a microscope. This allows the absolute determination of cell number in each treated well.
PBMCs (peripheral blood mononuclear cells) were collected from healthy donors and isolated by centrifugation on a layer of Ficoll Paque (GE Healthcare, UK). Monocytes were then sorted from the PBMCs using an autoMACS Pro Separator (MiltenyiBiotec), which sorts cells depending on the markers present on their cell surface. The resulting CD14+ monocytes were resuspended in αMEM supplemented with 10% FCS, 25 ng/mL M-CSF and 100 ng/ml RANKL and added to a 48-well plate, which was then incubated for up to 6 days at 37° C./5% CO2. […] The medium was replenished every 2 days.
At the end of the culture period, the medium was removed from the cells and the cells were fixed at room temperature and then washed with phosphate-buffered saline. TRAP staining solution was then added and the cells incubated at 37° C. until a red colour had developed, after which the reaction was stopped by rinsing with water. The stained cells were air-dried and then photographed using a conventional microscope and the TRAP-positive multinucleated osteoclasts counted by two independent observers.
The average results (n=6) for each concentration of test compound were averaged between the two observers and then expressed as a fold change versus the average control value. The data were then plotted graphically using software from Grafit (Erithacus Software).

SMILES	IC50 [1]	% reduction at 1 μM [2]	IC50 [2]
C[C@]1(O)CC[C@@H](NS(=O)(=O)c2ccc(-c3ccc(C#N)cc3)c(F)c2)CC1 [HMC-C-07-B, 4′-Cyano-2-fluoro-N-((1s,4s)-4-hydroxy-4-methylcyclohexyl)-[1,1′-biphenyl]-4-sulfonamide]	186 nM	90%	120 nM
C[C@]1(O)CC[C@@H](NS(=O)(=O)c2ccc(-c3ccc(F)cc3F)cc2)CC1 [ABD899, reference compound]	135 nM	–	–
C[C@]1(O)CC[C@H](NS(=O)(=O)c2ccc(-c3ccc(F)cc3F)cc2)CC1 [ABD900]	–	90%	370 nM
